Measurements published in patent US10941126B2, “Bridged bicycloalkyl-substituted aminothiazoles and their methods of use” (Temple University—Of The Commonwealth System of Higher …, priority 2017, dated 2021).

Experiments:
YB5 cells [1] = experiment: GFP reactivation in YB5 cells (flow cytometry); type: cell-based, human; settings: for GFP reactivation activity: multiple doses, four-day drug treatment in YB5
YB5 cells [2] = experiment: RNA-seq in YB5 cells; type: cell-based, human; settings: after excluding early response genes
Experimental: RNA from experiments in biological triplicates was isolated using RNeasy Mini Plus Kit (QIAGEN) following the manufacturer's instructions. Strand-specific RNA libraries were generated from 1 μg of RNA using TruSeq stranded total RNA with Ribo-Zero Gold (Illumina). Sequencing was performed using single end reads (50 bp, average 50 million reads per sample) on the HiSeq2500 platform (Illumina) at Fox Chase Cancer Center Genomic Facility. Sequenced reads were aligned to the hg19 genome assembly using TopHat2 (Kim, D., Pertea, G., Trapnell, C., Pimentel, H., Kelley, R., and Salzberg, S. L. (2013). Genome Biol 14, R36). The expression level and fold change of each treatment group was evaluated using EdgeR (Robinson, M. D., McCarthy, D. J., and Smyth, G. K. (2010), Bioinformatics 26, 139-140). Genes that had 0 reads across all samples were excluded. In order to get rid of batch effects, samples were normalized using RUVr method from the RUVseq package (Risso, D., Ngai, J., Speed, T. P., and Dudoit, S. (2014). Normalization of RNA-seq data using factor analysis of control genes or samples. Nat Biotechnol 32, 896-902). RNA data were deposited in the GEO database with the accession number GSE104837.

YB5 cells [3] = experiment: GFP reactivation in YB5 cells (flow cytometry); type: cell-based, human; settings: for Emax at 1 µM / Emax at 5 µM / Emax at 10 µM / Emax at 25 µM: Homo sapiens, 24 h; for Emax at 1 µM: read-out: relative activity to Depsipeptide @ 1 μM %; for Emax at 5 µM: read-out: relative activity to Depsipeptide @ 5 μM %; for Emax at 10 µM: read-out: relative activity to Depsipeptide @ 10 μM %; for Emax at 25 µM: read-out: relative activity to Depsipeptide @ 25 μM %
Excerpt: To screen the compounds of the invention for epigenetic anti-cancer activity the YB5 cell-based system, which is derived from the human colon cancer cell line SW48, was used (Si et al., 2010, Cancer Res. 70:6968-6977; Raynal et al., 2012, Cancer Res. 72:1170-1181). YB5 cells contain a single insertion of cytomegalovirus (CMV) promoter driving green fluorescent protein (GFP) gene. GFP expression is silenced in >99.9% of YB5 cells by epigenetic mechanisms. In YB5 cells, the inserted GFP gene behaves similarly to endogenous tumor suppressor genes (TSGs) silenced by epigenetic mechanisms, and it can be reactivated by epigenetic anti-cancer agents such as DNA methylation inhibitors and/or HDAC inhibitors such as depsipeptide (Si et al., 2010, Cancer Res. 70:6968-6977; Raynal et al., 2012, Cancer Research, 72:1170-1181; Wu et al., 2008, Mol. Cell Biol, 28:3219-3235). Thus, reactivation of GFP expression and the resulting fluorescence is a measure of epigenetic anti-cancer activity.
The following procedure may be used to identify compounds of useful in the invention. YB5 cells cultured in L-15 medium supplemented with 10% fetal bovine serum and 1% P/S are treated for 24 hours with varying concentrations (50 nM, 100 nM, 500 nM, 1 μM, 5 μM, 10 μM, 25 μM, and 50 μM) of test compounds. After treatment, cells are trypsinized and re-suspended in cell culture media with propidium iodide (PI) to stain dead cells. Reactivation of GFP is measured using flow cytometry to identify the GFP positive population. The relative activities are expressed as the percent of the response compared to treatment with 20 nM HDACi depsipeptide for 24 hours. YB5 cells are grown in 1% CO2 atmosphere at 37° C.
NDL-3040 compound library consists of 3040 chemically diverse compounds that are semi-natural, derived from natural compounds, or synthetic compounds that are natural-compound-like. The small molecules were arrayed in 96-well plates as 10 mM stocks in 100% DMSO and were purchased from TimTec Inc. An aminothiazole analog library (93 small molecules) was also purchased from the same vendor and was in a 96-well plate format as 10 mM stocks in 100% DMSO. The 3040 compounds were screened at 25 μM for 24 hr. All plates were kept at −80° C. before use. YB5 cells growing in log phase (70-80% confluency) in 96-well plates were used. Each experimental 96-well plate contained 80 different compounds. Compounds were dispensed using an INTEGRA VIAFLO96 96-well pipette. After a 24 hr drug treatment, cells were trypsinized for 10 mins and re-suspended in L-15 medium containing propidium iodide (PI) to stain for dead cells. A total of 10000 cells per well were analyzed using Millipore Guava flow cytometer (EMD, Millipore). GFP positive percentage was calculated by excluding all the PI positive cells. After finishing the screening, the average Z-factor
For drug screening and dose response validations, GFP positive cells were detected by Millipore Guava flow cytometer (EMD, Millipore). Cell cycle analysis was performed using BD FACSCalibur™ by propidium iodide staining four days after drug treatment. Sub-G1 population percentage was also included to measure apoptotic cell proportion. Data were analyzed using FlowJo software version 10.2. For the cell differentiation analysis, cells were washed and stained with propidium iodide (PI), CD11 b (BD Biosciences, #562793) and the isotype control IgG (BD Biosciences, #555748). Flow cytometry analysis was performed on a Millipore Guava flow cytometer (EMD, Millipore). For the ID8 in vivo experiments, ascites was drained from 5-10 mice per group and incubated in ACK buffer (Thermo Fisher) to lyse red blood cells for 10 minutes, then washed. Ascites from each mouse was individually lysed and prepared for flow cytometry. Mononuclear cells collected were cultured for 4 hours in RPMI with 5% Fetal Bovine Serum and in the presence of Cell Stimulation Cocktail (plus protein transport inhibitors; eBioscience). […]

ID8 = ID8 ovarian cancer syngeneic immunocompetent mouse model; type: in vivo
Experimental: For drug screening and dose response validations, GFP positive cells were detected by Millipore Guava flow cytometer (EMD, Millipore). Cell cycle analysis was performed using BD FACSCalibur™ by propidium iodide staining four days after drug treatment. Sub-G1 population percentage was also included to measure apoptotic cell proportion. Data were analyzed using FlowJo software version 10.2. For the cell differentiation analysis, cells were washed and stained with propidium iodide (PI), CD11 b (BD Biosciences, #562793) and the isotype control IgG (BD Biosciences, #555748). Flow cytometry analysis was performed on a Millipore Guava flow cytometer (EMD, Millipore). For the ID8 in vivo experiments, ascites was drained from 5-10 mice per group and incubated in ACK buffer (Thermo Fisher) to lyse red blood cells for 10 minutes, then washed. Ascites from each mouse was individually lysed and prepared for flow cytometry. Mononuclear cells collected were cultured for 4 hours in RPMI with 5% Fetal Bovine Serum and in the presence of Cell Stimulation Cocktail (plus protein transport inhibitors; eBioscience). Cells were then washed and stained for cell surface markers including Live/Dead (eBioscience #65-0865-18), CD45 (BD Biosciences, #563891), CD3 (BD Biosciences, #560527), MHC II (Biolegend #107619, Isotype Control #400627), CD80 (BD Biosciences, #553769), CD86 (BD Biosciences, #558703) and CD11c (BD Biosciences, #564079). Flow cytometry acquisition was performed on an LSRII cytometer (BD Biosciences) and data were analyzed using FlowJo software version 10.2.
2.5×10^5 ID8-VEGF-Defensin cells were injected i.p. into 7-8-week-old female C57BL/6NHsd (C57Bl/6) mice. Three days after injection, 1 mg/kg SNS-032, 10 mg/kg SNS-032, or 5% DMSO in PBS (vehicle control) was administered i.p. every 3 days for the duration of the experiment. α-PD-1 (200 ug/mouse) or IgG control were given on days 17, 20, 24, and 27 after injection. α-PD-1 (1 mg/mL in saline) was utilized. Mouse IgG isotype control was purchased from Leinco Technologies and diluted in PBS.

YB5 cells [4] = experiment: qPCR gene expression in YB5 cells; type: cell-based, human; settings: 24 hr treatment
Experimental: Total RNA was extracted using TRIzol reagent (Invitrogen) following the manufacturer's protocol and RNA concentrations were measured using Nanodrop. cDNAs were synthesized using High Capacity cDNA Reverse Transcription Kit (ThermoFisher) and qPCR was performed using either ready-made TaqMan® assays or SYBR-green using custom-designed primers. All the data were analyzed using Applied Biosystems software (StepOne™ Software V2.3). For all experiments, relative expression levels of the target genes were determined by calculating the 2^−ΔΔCt values. All experiments were performed at least in triplicates. Either GAPDH or 18S rRNA was used as an internal normalization control for protein coding genes. RPLPO was used as an internal normalization control for ERVs. All SYBR-green primers were described previously and are listed in Table 1 along with TaqMan® probes used.

Compound | Emax at 1 µM (YB5 cells [3]) [%] | Emax at 5 µM (YB5 cells [3]) [%] | Emax at 10 µM (YB5 cells [3]) [%] | Emax at 25 µM (YB5 cells [3]) [%] | relative activity to Depsipeptide @ 500 nM % (YB5 cells [3]) [%] | other results
Cc1c[nH]c(-c2cnc(NCCNc3ccc(C#N)cn3)nc2-c2ccc(Cl)cc2Cl)n1 [CHR99021] | – | – | – | – | – | GFP reactivation activity (YB5 cells [1]): no GFP reactivation activity
Nc1ncn([C@H]2C[C@H](O)[C@@H](CO)O2)c(=O)n1 [DAC, decitabine] | – | – | – | – | – | low expressed genes (RPKM<0.31) down (YB5 cells [2]): 7; low expressed genes (RPKM<0.31) up (YB5 cells [2]): 1238
[Cl-].[Li+] [LiCl] | – | – | – | – | – | GFP reactivation activity (YB5 cells [1]): no GFP reactivation activity
COc1cc(C(=O)c2sc(N[C@H]3CC4CCC3C4)nc2N)cc(OC)c1OC (stereo partly drawn) [MC180251, (4-amino-2-(((2S)-bicyclo[2.2.1]heptan-2-yl)amino)thiazol-5-yl)(3,4,5-trimethoxyphenyl)methanone] | 0 | 0 | 0 | 0 | – | relative activity to Depsipeptide @ 50 μM % (YB5 cells [3]): 0.00%
Nc1nc(N[C@H]2C[C@@H]3CC[C@H]2C3)sc1C(=O)c1cc2c(cc1[N+](=O)[O-])OCO2 [MC180300] | 3.87 | 35.6 | 51.6 | 46.9 | 0.68 | –
Nc1nc(N[C@H]2CC3CCC2C3)sc1C(=O)c1cc2c(cc1[N+](=O)[O-])OCCO2 (stereo partly shown) [MC180312] | 9.73 | 35.6 | 42.3 | 9 | – | relative activity to Depsipeptide @ 50 μM % (YB5 cells [3]): 6.38%
Nc1nc(N[C@H]2CC3CCC2C3)sc1C(=O)c1cccc([N+](=O)[O-])c1 (stereo partly shown) [MC180339] | 3.05 | 16.9 | 29.2 | 8.71 | 3.29 | –
Nc1nc(N[C@H]2CC3CCC2C3)sc1C(=O)c1ccc([N+](=O)[O-])cc1 (stereo partly shown) [MC180340] | 2.83 | 13 | 11.6 | 3.41 | 3.54 | –
N#Cc1ccccc1C(=O)c1sc(N[C@H]2CC3CCC2C3)nc1N (stereo partly drawn) [MC180342, 2-(4-amino-2-(((2S)-bicyclo[2.2.1]heptan-2-yl)amino)thiazole-5-carbonyl)benzonitrile] | 22.7 | 107 | – | 78.8 | 10.42 | –
Nc1nc(N[C@H]2CC3CCC2C3)sc1C(=O)c1ccc2nonc2c1 (stereo partly shown) [MC180345] | 3.58 | 3.61 | 3.99 | 12.6 | 1.87 | –
Nc1nc(N[C@H]2CC3CCC2C3)sc1C(=O)c1cccc2nonc12 (stereo partly drawn) [MC180349, (4-amino-2-(((2S)-bicyclo[2.2.1]heptan-2-yl)amino)thiazol-5-yl)(benzo[c][1,2,5]oxadiazol-4-yl)methanone] | 27.5 | 91.2 | 74.5 | 36.6 | 10.98 | –
O=C(/C=C/N1C[C@H]2C[C@@H]1CN2c1ccccn1)c1ccccc1O [PFI-3] | – | – | – | – | – | effect on GFP activation by HH1 or iCDK9 (YB5 cells [1]; 72 hr daily pre-treatment followed by 24 hr co-treatment): inhibited GFP activation
CC(C)(C)c1cnc(CSc2cnc(NC(=O)C3CCNCC3)s2)o1 [SNS-032] | – | – | – | – | – | survival (ID8; 10 mg/kg): extend the survival of the mice significantly; tumor burden (ID8; 10 mg/kg): reduce tumor burden; immune cells (CD45+) and T cells (CD3+) in the tumor microenvironment (ID8; in vivo treatment, ascites fluid, flow cytometry): increased populations
CN1CC[C@H](c2c(O)cc(O)c3c(=O)cc(-c4ccccc4Cl)oc23)[C@H](O)C1 [flavopiridol] | – | – | – | – | – | expression of SYNE1 and MGMT (YB5 cells [4]): gene reactivation
NC1CCC(Nc2cc(-c3cccc(NCc4cccc(F)c4)n3)c(Cl)cn2)CC1 (stereo not shown) [iCDK9] | – | – | – | – | – | expression of SYNE1 and MGMT (YB5 cells [4]): gene reactivation
